Measured values taken from patent publication US20100144860A1, “Transglutaminase Inhibitor Comprising EGCG And A Method For Producing Thereof” (priority 2007, published 2010).

Target: T1, Transglutaminase 2 (Cavia cutleri, UniProt P08587)
T1 construct: purchased Sigma-Aldrich T5398
T1 sequence (P08587 1-690): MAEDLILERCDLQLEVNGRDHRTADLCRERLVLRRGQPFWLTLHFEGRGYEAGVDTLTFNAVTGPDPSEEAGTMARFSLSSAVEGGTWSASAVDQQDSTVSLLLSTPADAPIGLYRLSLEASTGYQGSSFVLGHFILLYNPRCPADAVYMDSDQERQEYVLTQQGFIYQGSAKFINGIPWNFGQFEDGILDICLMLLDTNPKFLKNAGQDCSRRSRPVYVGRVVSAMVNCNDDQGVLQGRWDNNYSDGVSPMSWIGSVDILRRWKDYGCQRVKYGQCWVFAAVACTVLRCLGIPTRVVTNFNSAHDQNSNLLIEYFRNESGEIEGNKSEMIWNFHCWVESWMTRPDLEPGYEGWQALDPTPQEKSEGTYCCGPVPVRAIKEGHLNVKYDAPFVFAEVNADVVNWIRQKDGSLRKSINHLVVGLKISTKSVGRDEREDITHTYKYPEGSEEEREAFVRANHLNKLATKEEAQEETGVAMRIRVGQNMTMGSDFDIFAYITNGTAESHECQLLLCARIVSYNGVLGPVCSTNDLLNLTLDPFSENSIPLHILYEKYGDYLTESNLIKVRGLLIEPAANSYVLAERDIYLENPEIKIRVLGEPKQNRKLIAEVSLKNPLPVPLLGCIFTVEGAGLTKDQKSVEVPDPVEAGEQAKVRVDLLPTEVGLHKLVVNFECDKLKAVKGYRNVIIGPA
Experiment: In vitro assay for inhibition of transglutaminase activity ([1,4-14C] putrescine incorporation into succinylated casein)
Type: biochemical
Details: for activity of transglutaminase, Mean: mean of three assays, relative to DMSO control; for activity of transglutaminase, Assay 1 / activity of transglutaminase, Assay 2 / activity of transglutaminase, Assay 3: radioactivity compensated by DMSO-control group (=1.0000)
Method: To measure the inhibitory activity of EGCG which competes with putrescine, the transglutaminase-catalyzed reaction between [1,4,-^14C] putrescine and succinylated casein were observed.
Succinylated casein was purchased from Calbiochem (Cat. No. 573464), and 1 g of the powder was dissolved in 50 ml of a reaction buffer solution containing 5 mM DTT (0.1 M Tris-acetate (pH 8.0), 10 mM CaCl2, 0.15 M NaCl, 1.0 mM EDTA). This solution was stored in a deep freezer for further use. [1,4-^14C] Putrescine dihydrochloride was purchased from GE Healthcare (Cat. No. CFA301), and the stock solution was diluted with distilled water to yield a radiological dose of 5 μCi/ml. Transglutaminase 2 was purchased from Sigma-Aldrich (Cat. No. T5398), and diluted with distilled water to yield a final concentration of 1 unit/ml. EGCG (Sigma-Aldrich, Cat. No. E4143) was dissolved in DMSO at a concentration of 10 mM to prepare its stock solution, and the stock solution was diluted with DMSO to prepare solutions having various concentrations.
450 μl of succinylated casein solution and 50 μl of [1,4-^14C] putrescine dihydrochloride solution were mixed together to prepare a substrate solution. 96 μl of the reaction buffer, 3 μl of the stock solution of EGCG, and 1 μl of the stock solution of transglutaminase were mixed together to prepare each sample, followed by incubation at 37° C. for 10 min. 500 μl of the substrate solution and 100 μl of sample solution were mixed well, and the mixture was incubated at 37° C. for 2 hrs, before termination with 4.5 ml of cold (4° C.) 7.5% TCA. The final solution was stored at 4° C. for 1 hr. The TCA-precipitates were filtered through a GF/glass fiber filter, washed with 25 ml of cold 5% TCA, and dried. Radioactivity of crosslinked protein was measured using a (β-counter (Beckman Coulter), and compensated by the activity of DMSO-control group as a standard. The activity of transglutaminase was represented by the measured values. The assay was repeated three times under the same conditions, and the results are shown in the following Table 1.

## O=C(O[C@@H]1Cc2c(O)cc(O)cc2O[C@@H]1c1cc(O)c(O)c(O)c1)c1cc(O)c(O)c(O)c1 [EGCG, [2R, 3R]-2[3,4,5-trihydroxyphenyl]-3,4-dihydro-1[2H]-benzopyran-3,5,7-triol-3-[3,4,5-trihydroxybenzonate]]
EGCG 0.5 μM
  activity of transglutaminase, Mean: 0.5383
  activity of transglutaminase, Assay 1: 0.5166
  activity of transglutaminase, Assay 2: 0.5690
  activity of transglutaminase, Assay 3: 0.5295
EGCG 1.0 μM
  activity of transglutaminase, Mean: 0.3677
  activity of transglutaminase, Assay 1: 0.3950
  activity of transglutaminase, Assay 2: 0.3873
  activity of transglutaminase, Assay 3: 0.3207
EGCG 2.0 μM
  activity of transglutaminase, Mean: 0.2001
  activity of transglutaminase, Assay 1: 0.2009
  activity of transglutaminase, Assay 2: 0.2288
  activity of transglutaminase, Assay 3: 0.1707
EGCG 3.0 μM
  activity of transglutaminase, Mean: 0.1765
  activity of transglutaminase, Assay 1: 0.1911
  activity of transglutaminase, Assay 2: 0.1902
  activity of transglutaminase, Assay 3: 0.1482
EGCG 5.0 μM
  activity of transglutaminase, Mean: 0.1064
  activity of transglutaminase, Assay 1: 0.1246
  activity of transglutaminase, Assay 2: 0.0947
  activity of transglutaminase, Assay 3: 0.1000
EGCG 10.0 μM
  activity of transglutaminase, Mean: 0.0879
  activity of transglutaminase, Assay 1: 0.1029
  activity of transglutaminase, Assay 2: 0.0726
  activity of transglutaminase, Assay 3: 0.0881
EGCG 50.0 μM
  activity of transglutaminase, Mean: 0.0871
  activity of transglutaminase, Assay 1: 0.0861
  activity of transglutaminase, Assay 2: 0.0903
  activity of transglutaminase, Assay 3: 0.0849
FIG. 1, relative inhibition activities
  inhibition of the activity of transglutaminase (in words): inhibited in an EGCG concentration-dependent manner
Calculated by nonlinear regression from mean values
  IC50: 0.517 µM
